Columns and labels:
Format in all cases: cell-based, human
[1] = test system: HT29 cells; experiment: Cell cycle analysis by BrdUrd incorporation; details: for relative number of cells cycling through the S-phase: versus parental line
Protocol: Cells were plated 2×10^6/10 cm dish and allowed to recover 24 h. BRDU was incorporated (20 μM, 4 h), prior to cell harvest with trypsin-EDTA and fixation in 70% methanol, −20° C. overnight. BRDU detection was undertaken subsequent to sequential rehydration in HCl(2N)/Triton-X(0.5%) then incubation in Boric acid (0.1M), anti-DRDU FITC antibody (BD Biosciences; San Jose, Calif., USA) in PBS/BSA(1%)/Triton-X(0.5%). DNA was labeled using propidium iodide 0.5 mg/ml and incorporation was analyzed using the FACs calibur (BD Biosciences; San Jose, Calif., USA)

[2] = test system: PML; experiment: Western blot of PML knock-down by shRNA
Description: Cell lines in which PML was inducibly knocked-down were generated by co-infection with a lentivirus (pLVTHM) expressing the short hairpin RNA (shRNA) PML target sequence GACCAACAACATCTTCTGC (shPML1; SEQ ID No: 1) or AGATGCAGCTGTATCCAAG (shPML2; SEQ ID No: 2; Tavalai et al.) and a lentivirus expressing a tetracycline repressor (pLV-Ttrkrab-Red). Control cell lines with shLacZ and relevant wobble shPML control sequences GACCAACAATATATTCTGC (w-shPML1; SEQ ID No: 4) and AGATGCAGCTGTATCCAAG (w-shPML2; SEQ ID No: 5) were also generated under the control of a tetracycline repressor. PMLi to target sequence GAGTCGGCCGACTTCTGGT (SEQ ID No: 3; Bruno et al), referred to subsequently as PML3i was transfected into SKBR3 cells using Lipofectamine™ 2000 (Invitrogen Corporation, Carlsbad, Calif. 92008 USA), according to the manufacturer's instructions.
(§1) Western blot analysis and immunoprecipitation assays were carried out as previously described (Louria-Hayon et al.). The antibodies used in this study were: anti-human p53 monoclonal antibodies PAb1801 and D01, anti-phospho-p53 Thr^18 polyclonal antibody (Saito et al.), anti-phospho-p53 Ser^20 polyclonal antibody (Cell Signaling Technology, Beverly, Mass., USA); anti-PML monoclonal antibody (clone PML-97; Sigma Chemical Co., St Louis, Mo., USA), anti-GFP (Roche Applied Science, Mannheim, Germany), HRP-conjugated goat anti-mouse IgG, Envision peroxidase anti-mouse or anti-rabbit (Dako Corp., Glostrup, Denmark). The antibodies anti-p53 goat polyclonal antibody (FL-393, AC), anti-p53 rabbit polyclonal antibody (FL-393, FC) and anti-PML polyclonal rabbit antibody ((H-238) sc-5621) were from Santa Cruz Biotechnology, Santa Cruz, Calif., USA.

[3] = test system: p53 Thr18 phosphorylation; experiment: Immunoblot of IR-induced p53 Thr18 phosphorylation in NB4 cells; details: As2O3 1 μM 4 h, γ-IR 5Gy
Protocol: as §1
The inventors have previously shown that PML facilitates the phosphorylation of wt p53 at Ser^20 by check-point kinase 2 (Chk2; Louria-Hayon et al.) and Thr^18 by CK1 (Alsheich-Bartok et al.). These observations raised the surprising possibility that PML may also facilitate the phosphorylation of mutant p53.

[4] = test system: Cyclin B2 promoter; experiment: Luciferase reporter assay pCCAAT-B2LUC in SKBR3; details: SKBR3, adriamycin 0.5 μg/ml
Protocol: (§2) For LacZi-SKBR3 and PML3i-SKBR3, cells (1.5×10^5) were transiently transfected with expression plasmids, reporter constructs, and 0.51 μg of CMV β-galactosidase plasmid (pcDNA3-β-gal vector) as an internal control for transfection efficiency. Precipitates were removed and cells were treated with 0.5 μg/ml ADR for 48 hr. Luciferase activity was assayed on whole-cell extract, as described (Manni et al.). The luciferase values were normalized to β-galactosidase activity and protein content.
(§3) In addition, the effect of PML down-regulation on the transcription of the mutant p53 targets cyclin B2 and Cdc25C, in response to genotoxic stress, was examined in the endogenous mutant p53^175 background of SKBR3 cells. SKBR3 cells were transfected with either PML3i (SEQ ID No: 3) or shp53 (GACTCCAGTGGTAATCTA; SEQ ID No: 10), and luciferase reporter constructs for either Cyclin B2 or Cdc25c. After 24 hours, the cells were exposed to adriamycin (0.5 μg/ml). Down regulation of p53 suppressed the induction of both promoters (FIG. 6B(i) and (ii), respectively). […] The suppression of endogenous cyclin B2 and Cdc25C in response to either p53 or PML down-regulation, under the influence of Adriamycin, was also confirmed at the RNA level by RT-PCR (FIG. 6C).

[5] = test system: p53 null H1299 cells; experiment: Cell cycle analysis and flow cytometry
Protocol: (§4) To ascertain the influence of PML levels on the proliferation of HT29 human cancer cells, they were subjected initially to metabolic evaluation using an MTT assay and cell cycle analysis using BrdUrd incorporation. […] This reduction was consistent with the reduced growth rate, but cannot explain the marked difference in cell numbers. It is important to clarify that because the MTT assay involved plating cells of equal number 24 hours in advance of each assay time point, there was continual selection for live cells, which is likely to have masked the accrued effects detected with longer-term plating for the flow cytometric analysis and the colony assay. […] To further substantiate the mutant p53 dependence of cell cycle perturbation induced through PML knockdown, H1299 cells either without, or bearing mutant p53^175, were subjected to cell cycle analysis and flow cytometry (FIG. 10).

[6] = test system: H1299 cells expressing exogenous mutant p53^175; experiment: Cell cycle analysis and flow cytometry; details: H1299 bearing mutant p53^175
Protocol: as §4

[7] = test system: Cdc25C RNA; experiment: RT-PCR of endogenous mutant p53 target in SKBR3; details: SKBR3, under Adriamycin
Description: (§5) Cellular RNA was isolated by Tri-Reagent (MRC Inc.; Cincinnati, Ohio, USA) using the manufacture's instructions, DNA was removed from the samples using DNase treatment (DNA-free kit, Ambion Applied Biosystems; Foster City, Calif., USA), cDNA was synthesized from the purified RNA using M-MLV Reveres Transcription kit (Promega, Madison, Wis., USA). Primers for ribosomal 18S were forward: […] (SEQ ID No: 6); and reverse: […] (SEQ ID No: 7). Primers for PML were forward: CGCCCTGGATAACGTCTTT (SEQ ID No: 8) and reverse: ACTGTGGCTGCTGTCAAGG (SEQ ID No: 9).
as §3

[8] = test system: cyclin B2 RNA; experiment: RT-PCR of endogenous mutant p53 target in SKBR3; details: SKBR3, under Adriamycin
Description: as §5, §3

[9] = test system: SKBR3 cells; experiment: Trypan blue dye exclusion after Adriamycin exposure; details: SKBR3, Adriamycin 0.5 μg/mL 24 h
Protocol: Expression of certain p53 mutants confers cells with some resistance to genotoxic stress (Strano et al.). It was therefore important to define whether PML contributes to this biological effect of mutant p53. To this end PML expression was down regulated in SKBR3 cells and cells were exposed to 0.5 μg/ml Adriamycin for 24 h. The effect on cell survival was determined by Trypan blue dye exclusion. Down regulation of PML reduced the numbers of live cells (FIG. 6A(i)), whereas no significant increase in cell death was identified (FIG. 6A(ii)).

[10] = test system: Cdc25C promoter; experiment: Luciferase reporter assay pCCAAT-cdc25CLUC in SKBR3; details: SKBR3, adriamycin 0.5 μg/ml
Protocol: as §2, §3

[11] = test system: HT29 cells; experiment: MTT metabolic assay; details: HT29, 3, 4 and 11 days of doxycycline exposure, compared with control w-shPML1
Protocol: Cells either untreated or treated with doxycyclin (0.2 μg/ml) to knock down PML were plated 4000 per well in a 96 well plate and allowed to recover for 24 h. 3-(4,5-Dimethylthiazolyl-2)-2,5-diphenyltetrazolium bromide (MTT, […] final concentration) was added to the wells and the experiment was terminated after an additional 4 h incubation, by aspiration of the liquid and addition of 200 μl of DMSO. The absorbance was read at 540 nm, relative to a reference wavelength of 630 nm (Mosmann et al.).

[12] = test system: SW480 cells; experiment: Flow cytometry of live/dead cells by propidium iodide exclusion
Protocol: (§6) Cells were cultured in the absence or presence of doxycyclin (0.2 μg/ml added every second day) for three days then 25,000 cells were plated (with doxycyclin maintainance in culture for continued shRNA induction) and harvested at selected time points. Cells adherent to the plate were released with trypsin-EDTA and combined with those suspended in the culture supernatant prior to flow cytometric analysis of live cell numbers, as discriminated by propidium iodide exclusion using a cell sorter (FACSCalibur) harnessed to CellQuest software (BD Biosciences; San Jose, Calif., USA).

[13] = test system: HT29 cells; experiment: as above
Protocol: as §6

[14] = test system: PML transcript; experiment: RT-PCR of PML transcript after shRNA knock-down
Description: as §5

[15] = test system: SW480 cells; experiment: Colony formation assay; details: SW840 as printed, doxycycline-induced PML knockdown for 21 d
Protocol: (§7) Cancer cell lines were plated (700 per well) in 5 cm diameter dishes in the absence or presence of tetracycline (0.2 μg/ml added every second day) for 21 days. At harvest the cells were fixed in ethanol and stained in 0.1% crystal violet.

[16] = test system: HT29 cells; experiment: Colony formation assay; details: HT29, doxycycline-induced PML knockdown for 21 d
Protocol: as §7

[17] = HT29, 3 days of doxycyclin induction
[18] = HT29, 8 days of continuous PML knock down

| Substance | relative number of cells cycling through the S-phase [1, 17] | expression of major PML isoforms ([2]; HT29, doxycycline 72 h) | expression of major PML isoforms ([2]; SW480, doxycycline 72 h) | Cyclin B2 promoter activity (luciferase) [4] | cell cycle profile [5] | G2 [6] | endogenous Cdc25C RNA level [7] | endogenous cyclin B2 RNA level [8] | Cdc25C promoter activity (luciferase) [10] | further results |
| --- | --- | --- | --- | --- | --- | --- | --- | --- | --- | --- |
| w-shPML1: wobble shPML control sequence GACCAACAATATATTCTGC [reference compound] | comparable | failed to reduce PML levels | failed to reduce PML levels | – | – | – | – | – | – | – |
| arsenic trioxide [As2O3] | – | – | – | – | – | – | – | – | – | IR-induced phosphorylation of p53 on Thr18 [3]: facilitated |
| PML3i: siRNA to PML target sequence GAGTCGGCCGACTTCTGGT (Bruno et al), transfected with Lipofectamine 2000 (listed as DNA, chemistry not given here) | – | – | – | reduced | not disrupted | striking increase | suppression | suppression | reduced | cell death [9]: without significant cell death; live cell numbers [9]: slightly reduced |
| shPML1: lentivirus-expressed, doxycycline-inducible short hairpin RNA to PML target sequence GACCAACAACATCTTCTGC | comparable | reduced | reduced | – | – | – | – | – | – | rate of metabolism (MTT) [11]: slightly lower; cell death ([12]; SW480, 7 or 8 days of PML down regulation): modest increase; number of live cells ([12]; SW480, 7 or 8 days of doxycyclin exposure): significantly reduced; cell death ([13]; HT29, 7 or 8 days of PML down regulation): modest increase; number of live cells ([13]; HT29, 7 or 8 days of doxycyclin exposure): significantly reduced; PML transcript level ([14]; HT29, RT-PCR normalized to 18 s): reduction; PML transcript level ([14]; SW480, RT-PCR normalized to 18 s): reduction; level of G1 [1, 17]: slightly higher; level of G2 [1, 17]: lower; BrdUrd incorporation into the S-phase [1, 18]: reduced markedly; G1 [1, 18]: increases; G2 [1, 18]: increases; inhibition of colony formation [15]: > 70%; inhibition of colony formation [16]: > 90% |
| shp53: RNA interference construct to p53, GACTCCAGTGGTAATCTA [reference compound] | – | – | – | suppressed | not disrupted | striking increase | suppression | suppression | suppressed | – |

— US8586557B2, “Therapy of p53 mutant colon adenocarcinoma, breast cancer and lung cancer” (Peter MacCallum Cancer Institute, priority 2009, dated 2013)
